Each block holds one compound with its values, some of them ahead of it. Activity calls are given as the source filed them.
What was measured:
[1] = NIH-3T3 fibroblast cytotoxicity, dose response, cytotoxicity control for antifungal single agent project, cell-based, Alamar Blue, dry powder (AID 602188); format: functional
[2] = inhibitors of clade B AD8 Env fusion, dose response, cell-based, cherry-pick (AID 652062); format: functional;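 note: luciferase signal from cell-cell fusion driven by HIV-1 clade B AD8 Env; potency is for inhibitors of fusion seen as a drop in luminescence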
[3] = target: T1, Ubiquitin-conjugating enzyme E2 N (Homo sapiens, UniProt P61088); format: functional;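 note: Dose-response confirmation in a TR-FRET assay detecting UBC13-driven polyubiquitin chain formation, inhibition measured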
T1 sequence (P61088 whole entry): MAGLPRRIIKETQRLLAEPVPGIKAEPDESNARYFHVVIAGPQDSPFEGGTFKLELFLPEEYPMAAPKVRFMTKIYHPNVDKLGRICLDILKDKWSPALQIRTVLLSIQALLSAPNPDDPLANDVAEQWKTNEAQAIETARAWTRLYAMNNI

[4] = target: Intestinal-type alkaline phosphatase (Mus musculus, UniProt P24822); assay: PubChem AID 488785; format: functional
[5] = target: Apoptotic protease-activating factor 1 (Homo sapiens, UniProt O14727); format: functional
[6] = target: Sphingosine 1-phosphate receptor 2 (Homo sapiens, UniProt O95136); assay: Dose Response Cell Based Assay for Antagonists of the S1P2 Receptor. [Related pubchem assays: 856, 736 ]; format: functional
[7] = target: T2, Orexin/Hypocretin receptor type 1 (Homo sapiens, UniProt O43613); assay: Fluorescence-based cell-based high throughput dose response assay for antagonists of the orexin 1 receptor (OX1R; HCRTR1). [Related pubchem assays (depositor defined):AID434989, AID435008, AID463079, AID485270, AID492963, AID492964, AID492965, AID493232, AID504717, AID504718]; format: functional
T2 sequence (O43613 whole entry): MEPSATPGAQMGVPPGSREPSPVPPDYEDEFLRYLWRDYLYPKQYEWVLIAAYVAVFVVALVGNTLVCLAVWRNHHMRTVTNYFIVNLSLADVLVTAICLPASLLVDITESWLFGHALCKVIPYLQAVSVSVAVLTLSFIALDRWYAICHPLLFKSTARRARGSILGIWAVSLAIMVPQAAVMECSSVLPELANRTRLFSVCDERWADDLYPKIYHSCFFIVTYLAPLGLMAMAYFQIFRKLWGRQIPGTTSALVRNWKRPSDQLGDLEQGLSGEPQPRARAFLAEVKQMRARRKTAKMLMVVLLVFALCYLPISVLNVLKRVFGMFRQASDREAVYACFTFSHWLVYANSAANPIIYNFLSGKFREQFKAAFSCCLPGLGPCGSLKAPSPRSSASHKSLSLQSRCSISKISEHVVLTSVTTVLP

CHO = assay: cytotoxicity in TLR9-MyD88 CHO cells, dose response, cytotoxicity control for TLR9-MyD88 binding inhibitor project, cell-based, luminescence (AID 588339); format: functional, hamster; details: Cricetulus griseus;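 note: CHO cells stably coexpressing TLR9 and MyD88 fusions from primary screen; compound exposure lasted 48 hours before viability readout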
[8] = HEK293T cytotoxicity, dose response, cytotoxicity control for miR-122 modulator project, cell-based, activator set, cherry-pick (AID 720690); format: functional;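 note: HEK293T human cells scored for general mammalian cytotoxicity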
[9] = target: Glycogen synthase kinase-3 alpha (Homo sapiens, UniProt P49840); format: functional;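 note: GSK3A result taken from a broad kinome-wide kinase panel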
[10] = target: Serine/threonine-protein kinase Chk1 (Homo sapiens, UniProt O14757); format: functional;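 note: measured as one member of a kinome-wide kinase profiling panel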
Chain of Serine/threonine-protein kinase Chk1 (O14757 whole entry): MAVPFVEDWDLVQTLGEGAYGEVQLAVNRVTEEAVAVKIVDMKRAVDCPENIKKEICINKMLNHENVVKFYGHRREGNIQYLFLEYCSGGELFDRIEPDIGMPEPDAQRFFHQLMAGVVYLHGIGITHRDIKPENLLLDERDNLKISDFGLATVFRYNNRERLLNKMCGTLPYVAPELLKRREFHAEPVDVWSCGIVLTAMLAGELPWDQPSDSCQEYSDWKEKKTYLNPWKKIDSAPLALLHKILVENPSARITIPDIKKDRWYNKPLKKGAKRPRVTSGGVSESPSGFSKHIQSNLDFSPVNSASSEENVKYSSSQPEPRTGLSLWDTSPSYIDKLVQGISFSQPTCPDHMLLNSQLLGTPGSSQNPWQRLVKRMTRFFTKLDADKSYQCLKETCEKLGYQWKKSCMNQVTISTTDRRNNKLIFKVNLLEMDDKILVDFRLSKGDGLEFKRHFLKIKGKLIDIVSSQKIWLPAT

Chain of Sphingosine 1-phosphate receptor 2 (O95136 whole entry): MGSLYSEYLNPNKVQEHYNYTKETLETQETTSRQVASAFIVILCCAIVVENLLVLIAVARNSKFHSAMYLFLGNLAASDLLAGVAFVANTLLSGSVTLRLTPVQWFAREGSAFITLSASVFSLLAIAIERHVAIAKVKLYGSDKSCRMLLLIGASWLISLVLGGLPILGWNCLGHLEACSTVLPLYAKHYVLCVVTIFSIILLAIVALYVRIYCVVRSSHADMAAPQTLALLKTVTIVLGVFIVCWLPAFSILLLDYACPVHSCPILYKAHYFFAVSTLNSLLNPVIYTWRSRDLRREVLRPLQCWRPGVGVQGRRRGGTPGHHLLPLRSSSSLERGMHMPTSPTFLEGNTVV
Chain of Intestinal-type alkaline phosphatase (P24822 whole entry): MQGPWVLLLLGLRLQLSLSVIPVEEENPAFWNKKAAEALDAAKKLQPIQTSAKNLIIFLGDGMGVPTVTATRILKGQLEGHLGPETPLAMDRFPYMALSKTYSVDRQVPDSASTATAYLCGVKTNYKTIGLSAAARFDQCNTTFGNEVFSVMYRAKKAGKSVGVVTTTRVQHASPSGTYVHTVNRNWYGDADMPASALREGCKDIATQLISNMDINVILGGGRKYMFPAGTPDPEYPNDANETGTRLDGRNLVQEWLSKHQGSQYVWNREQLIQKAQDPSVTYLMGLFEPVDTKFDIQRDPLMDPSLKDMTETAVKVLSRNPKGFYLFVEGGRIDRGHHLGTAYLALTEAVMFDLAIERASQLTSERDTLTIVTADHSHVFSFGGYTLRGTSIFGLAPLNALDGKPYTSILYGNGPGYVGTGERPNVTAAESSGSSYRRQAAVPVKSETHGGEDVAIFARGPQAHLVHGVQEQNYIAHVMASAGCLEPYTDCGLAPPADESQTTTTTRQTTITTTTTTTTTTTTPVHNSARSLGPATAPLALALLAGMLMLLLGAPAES
Chain of Apoptotic protease-activating factor 1 (O14727 whole entry): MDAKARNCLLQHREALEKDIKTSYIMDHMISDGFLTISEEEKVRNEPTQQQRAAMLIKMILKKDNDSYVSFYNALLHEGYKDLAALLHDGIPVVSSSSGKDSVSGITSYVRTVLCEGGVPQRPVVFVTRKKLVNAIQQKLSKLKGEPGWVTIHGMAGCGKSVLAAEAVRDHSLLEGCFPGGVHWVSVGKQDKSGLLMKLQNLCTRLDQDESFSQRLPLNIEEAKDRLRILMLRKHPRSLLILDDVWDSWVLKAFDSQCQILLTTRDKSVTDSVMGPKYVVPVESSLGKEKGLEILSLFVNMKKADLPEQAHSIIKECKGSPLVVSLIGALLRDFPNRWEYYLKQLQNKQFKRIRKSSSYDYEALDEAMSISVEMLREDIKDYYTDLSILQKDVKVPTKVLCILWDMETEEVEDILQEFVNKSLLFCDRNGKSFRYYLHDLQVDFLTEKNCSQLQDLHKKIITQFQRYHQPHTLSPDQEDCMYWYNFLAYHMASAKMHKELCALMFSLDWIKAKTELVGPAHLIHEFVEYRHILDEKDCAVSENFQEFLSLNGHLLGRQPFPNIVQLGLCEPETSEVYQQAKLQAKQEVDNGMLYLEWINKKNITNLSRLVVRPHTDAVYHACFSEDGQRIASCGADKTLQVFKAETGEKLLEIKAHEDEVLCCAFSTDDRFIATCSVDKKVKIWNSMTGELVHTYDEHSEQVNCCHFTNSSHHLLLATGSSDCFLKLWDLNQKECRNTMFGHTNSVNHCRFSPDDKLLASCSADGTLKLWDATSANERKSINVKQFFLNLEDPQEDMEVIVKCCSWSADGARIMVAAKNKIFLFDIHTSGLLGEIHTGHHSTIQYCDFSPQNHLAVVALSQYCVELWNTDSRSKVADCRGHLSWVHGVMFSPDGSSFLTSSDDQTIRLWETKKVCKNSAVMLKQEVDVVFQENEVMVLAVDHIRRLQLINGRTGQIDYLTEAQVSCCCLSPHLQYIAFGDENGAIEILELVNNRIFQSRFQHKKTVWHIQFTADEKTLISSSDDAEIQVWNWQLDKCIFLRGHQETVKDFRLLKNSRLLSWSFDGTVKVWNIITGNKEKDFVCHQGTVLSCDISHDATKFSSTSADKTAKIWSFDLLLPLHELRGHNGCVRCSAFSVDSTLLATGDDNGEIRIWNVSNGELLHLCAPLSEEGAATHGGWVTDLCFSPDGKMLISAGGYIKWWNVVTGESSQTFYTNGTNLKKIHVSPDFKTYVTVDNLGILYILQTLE
Chain of Glycogen synthase kinase-3 alpha (P49840 whole entry): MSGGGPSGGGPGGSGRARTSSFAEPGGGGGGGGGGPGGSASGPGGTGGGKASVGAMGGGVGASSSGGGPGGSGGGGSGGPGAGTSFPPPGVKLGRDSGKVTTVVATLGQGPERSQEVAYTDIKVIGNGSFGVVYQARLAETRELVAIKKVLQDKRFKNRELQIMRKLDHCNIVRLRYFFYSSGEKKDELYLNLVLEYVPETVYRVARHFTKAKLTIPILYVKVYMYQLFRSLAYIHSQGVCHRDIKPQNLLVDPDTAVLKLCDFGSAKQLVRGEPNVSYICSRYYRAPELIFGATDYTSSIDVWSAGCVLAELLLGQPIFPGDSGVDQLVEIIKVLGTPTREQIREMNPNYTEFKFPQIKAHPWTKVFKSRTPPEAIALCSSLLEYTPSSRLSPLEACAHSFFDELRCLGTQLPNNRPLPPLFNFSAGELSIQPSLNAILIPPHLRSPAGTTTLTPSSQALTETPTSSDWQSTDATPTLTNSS

Structure (SMILES): CCCC(=O)NC(c1cccs1)c1cc(Cl)c2cccnc2c1O (stereo unspecified)
AC50 [1]: 1.06 µM (active) | AC50 [2]: 6.73 µM (active)

IC50 [3]: > 20 µM (inactive) | IC50 [4]: 30.4 µM (active) | IC50 [5]: 36.6 µM (active)
Structure (SMILES): O=C(O)CC(C(=O)O)N1C(=O)/C(=C/C=C/c2ccco2)SC1=S (stereo unspecified)

Structure (SMILES): Cc1ccc(C(=O)OCn2ncc(Cl)c(Cl)c2=O)cc1
IC50 [6]: 2.65 µM (active) | IC50 [7]: 6.12 µM (active) | IC50 (CHO): 1.53 µM (active) | AC50 [8]: 4.47 µM (active)

Ki [9]: 1.58 µM (active) | Ki [10]: > 3.16 µM (inactive)
Structure (SMILES): Cc1ccc(-c2cc(-c3cc(Br)ccc3O)[nH]c(=O)c2C#N)s1

Reference: ChEMBL document CHEMBL1201862, “PubChem BioAssay data set” (2004)
